# Reference: PMC12463534, “Exploring the Anticancer Properties of 4-Phenylthiazole-Based Ru(II) and Os(II) Metallacycles Featuring 1-Methylimidazole as N-Donor Functionality” (Bioinorganic Chemistry and Applications, 2025)
# Assays:
# Balb/c mice = assay: Toxicity experiments in Balb/c mice (MTD); settings: mice, i.p.
# Description: Finally, we were interested in the anticancer activity of selected complexes of our panel in an in vivo mouse setting. Before injecting the compounds in tumor-bearing mice, toxicity experiments were performed. […] On the last day of therapy, most animals were sacrificed and tissues as well as tumors collected. Only four mice (per group) were kept to get information on the impact of the drugs on the overall survival.
# [1] = tested on: CH1/PA-1 ovarian teratocarcinoma cells; assay: MTT assay, inhibition of cancer cell growth, CH1/PA-1; settings: read-out: 50% inhibitory concentration CH1, exposure time 96 h
# Description: (§1) CH1/PA-1 ovarian teratocarcinoma cells (CH1, RRID: CVCL_4992, provided by L. R. Kelland, CRC Center for Cancer Therapeutics, Institute of Cancer Research, Sutton, UK; confirmed by STR profiling as PA-1 ovarian teratocarcinoma cells at Multiplexion, Heidelberg, Germany), SW480 colon adenocarcinoma (RRID: CVCL_0546), and A549 lung adenocarcinoma cells (NCI-H2618, RRID: CVCL_A549; both cell lines were obtained from the American Type Culture Collection (ATCC), Manassas, VA, USA) were grown as adherent cultures in 75-cm^2 culture flasks (Starlab, Hamburg, Germany) by using minimal essential medium (MEM) supplemented with 1 mM sodium pyruvate, 4 mM L-glutamine, 1% (v/v) nonessential amino acids from 100-fold stock (all purchased from Sigma-Aldrich), and 10% heat-inactivated fetal bovine serum (Serana, Pessin, Germany).
# (§2) The 3-(4,5-dimethylthiazol-2-yl)-2,5-diphenyl-2H tetrazolium bromide (MTT, Acros Organics, Geel, Belgium) assay was used to detect the cytotoxicity of the compounds after 96-h incubation. For this purpose, cells were harvested from culture flasks by trypsinization, seeded in 100-μL aliquots into 96-well microculture plates (Starlab, UK) in densities of 1 × 10^3 (CH1/PA-1), 2 × 10^3 (SW480), and 3 × 10^3 (A549) cells per well and incubated for 24 h prior to exposure to the test compounds. Stock solutions of test compounds were prepared in DMF, which were then diluted in MEM (not to exceed a final content of 0.5% v/v of organic solvent in the test plates), and serial dilutions were added in aliquots of 100 μL per well. […] After incubation for 4 h, the medium/MTT mixtures were removed, and the produced formazan crystals were dissolved in 150 μL DMSO per well. Optical densities at 550 nm were measured spectrophotometrically with a ELx808 Absorbance Microplate Reader (Bio-Tek, Winooski, VT, USA) by using a reference wavelength of 690 nm to correct for unspecific absorption.
# [2] = Conditional stability constant of Ru-MeIm bond and speciation modelling (pH-dependent UV-vis, HypSpec); format: physicochemical
# Description: Calculation was done with HypSpec software based on the pH-dependent UV–vis spectra recorded after 3 days (Figures S27, S28). With the help of the computed constant, it was possible to model the speciation at various concentrations. […] At pH 6.0, a condition more characteristic of solid tumor tissues, the MeIm ligand tends to dissociate to a greater extent and only 44% and 76% of the original complex is found in solution at 0.1 and 1 μM concentrations, respectively.
# The average water ionization constant, pKw, was determined as 13.76 ± 0.01, which is in good agreement with literature data. The initial volume of the samples was 15.0 mL. The complex concentration was 100 or 157 μM at an ionic strength of I = 0.1 M (KCl). Samples were degassed by bubbling purified argon through them for about 10 min prior to the measurements, and the inert gas was also passed over the solutions during the titrations. 0.70-mL batch samples were collected between pH 1 and 11; these samples were kept in dark, and after 2 and 3 days, their pH was remeasured, and the UV–vis spectra were recorded as well. Only small differences were observed between the 2- and 3-day spectra, and always, the 3-day samples were used for further evaluation. The conditional stability constant for 3c was calculated based on the following equilibrium: [RuCym(N,C)(Z)]^(1+n) + MeIm ⇌ [RuCym(N,C) (MeIm)]^+ + Z^n; (Z = Cl^– or H2O; n = −1 or 0). The calculation was done with the HypSpec software. […] The calculated stability constant is a conditional value and applies for I = 0.1 M KCl ionic strength.
# SW480 cells = assay: DCFH-DA assay, cellular ROS levels; format: cell-based, human; settings: 2 h, concentration dependent
# [3] = tested on: HCT116 multicellular tumor spheroids (3D); assay: Resazurin assay, HCT116 3D multicellular tumor spheroids; settings: read-out: IC50 3D; HCT116 3D spheroids, resazurin assay, 96 h exposure
# Description: Both models were investigated by the fluorimetric resazurin assay after 96-h exposure.
# HCT116 colorectal carcinoma cells (RRID:CVCL_0291 from ATCC) were cultivated in McCoy's 5A medium, supplemented with 10% heat-inactivated fetal bovine serum and 4 mM L-glutamine.
# For 2D experiments, HCT116 cells were harvested from culture flasks by trypsinization, seeded in 100-μL aliquots into 96-well microculture plates (CytoOne, TC-treated, from Starlab) in densities of 2 × 10^3 cells per well, and incubated for 24 h prior to exposure to the test compounds. […] Stock solutions of test compounds were prepared in DMF, which were then diluted in McCoy's 5A-supplemented medium (not to exceed a final content of 0.5% v/v of organic solvent in the test plates), and serial dilutions were added in aliquots of 100 μL per well. […] After incubation for 4 h, fluorescence was measured with a microplate reader (Bio-Tek, SynergyHT) at a wavelength of 530 nm, additionally using a reference wavelength of 620 nm.
# Solubility in 1% DMF/PBS = assay: Solubility in 1% DMF/PBS
# Source text: Solubility is an important factor for the application of metallodrugs. DMF was used as solubilizer to allow comparison to the respective chlorido complexes where the usage of DMSO would lead to stable DMSO adducts.
# As the coordinated p-cym and leaving groups are present in all synthesized complexes, we focused on the differently substituted 4-phenylthiazoles for estimated changes in lipophilicity.
# CT26 tumor = assay: Anticancer activity in CT26 tumor-bearing BALB/c mice; format: in vivo; settings: i.p. 50 mg/kg
# Description: Figure 5 Anticancer activity of 1c and 3c in vivo. CT26-bearing BALB/c mice were treated i.p. with 50 mg/kg for five consecutive days for 2 weeks. (a) Impact on tumor growth; data are presented as mean ± SEM. […] On Day 15, most of the animals were sacrificed and tissues collected for further analyses. Of each group, 4 animals were kept to assess the impact on overall survival, which is shown in (b). Statistical significance was tested by log-rank test and Mantel–Cox post-test, ^∗p < 0.01. (c) The ruthenium levels measured by ICP-MS in the collected tissue samples of the mice, which were sacrificed 2 h after the last treatment.
# CT26 cells (5 × 10^5 cells in 50-μL serum-free medium) were injected subcutaneously (s.c.) into the right flank of 8–16-week-old BALB/c mice (Envigo Laboratories, San Pietro Al Natisone, Italy). After 3 days, therapy treatment started on five consecutive days for 2 weeks. Animals were treated i.p. with 50 mg/kg 1c and 3c (all dissolved in 10% DMSO in 0.9% NaCl, 12 mice per group). The solvent control animals received 10% DMSO in 0.9% NaCl. Every day, the animals were monitored for the overall health conditions and tumor size was measured regularly by caliper measurement. Tumor volumes (mm^3) were calculated using following formula: length × width^2/2. In the overall survival arm of the experiment, mice were sacrificed by cervical dislocation in the case of a tumor length > 20 mm or tumor ulceration or a decreased body weight of ∼20%. Tumor growth and possible side effects of the treatment were evaluated by daily recording the tumor size by caliper measurement and parameters of the animal's overall health conditions. In the tissue sampling arm at the experiment, the mice were sacrificed by cervical dislocation 2 h after the last treatment. Tumors as well as organs were collected. Additionally, blood was drawn and incubated for 25 min to allow blood clotting. To isolate serum and blood pellets, the blood was centrifuged for 10 min at 17,900 g at room temperature. The supernatant characterized as serum was transferred to a new tube and centrifuged again to remove residual red blood cells. All collected samples were stored at −20°C and further processed for platinum measurements via ICP-MS.
# [4] = tested on: SW480 colon adenocarcinoma cells; assay: MTT assay, inhibition of cancer cell growth, SW480; settings: read-out: 50% inhibitory concentration SW480, exposure time 96 h
# Description: as §1, §2
# [5] = tested on: A549 lung adenocarcinoma cells; assay: MTT assay, inhibition of cancer cell growth, A549; settings: read-out: 50% inhibitory concentration A549, exposure time 96 h
# Description: as §1, §2
smiles,measurement,setting,value
"Cc1ccc(C(C)C)cc1.Cn1cc[n+]([Ru-]2[c]3cc(S(C)(=O)=O)ccc3-c3csc[n+]32)c1.O=[N+]([O-])[O-] [Compound 3c, [((3-κN)-1-Methylimidazole)(4-(4-(methylsulfonyl)phenyl)thiazolato-κN,κC2′)(η^6-p-cymene)ruthenium(II)] Nitrate]",Tolerated dose,Balb/c mice,at least 50 mg/kg
same,IC50,[1],102 ± 11 µM
same,Conditional stability constant logK′ of Ru(p-cym)-MeIm bond,"[2]; I = 0.1 M KCl, 25°C, UV-vis spectra after 3 days, HypSpec",8.31 ± 0.03
same,Original complex found in solution,"[2]; pH 6.0, 0.1 μM complex, modelled from logK′",44%
same,Original complex found in solution,"[2]; pH 6.0, 1 μM complex, modelled from logK′",76%
same,Intact (nondissociated) complex fraction,"[2]; pH 7.4, 0.1 μM complex, modelled from logK′",78%
same,Stability of complex by modelled speciation,"[2]; pH 7.4, 1 μM and 10 μM complex concentrations",stable
same,Effect on intracellular ROS levels,SW480 cells,constantly decrease ROS levels with increasing concentrations
same,IC50,[3],226 ± 36 µM
same,Solubility,Solubility in 1% DMF/PBS,24.6 mM
same,Impact on overall survival,"CT26 tumor; 4 mice per group, log-rank test",significantly prolonged overall survival
same,Impact on tumor volume (anticancer activity),"CT26 tumor; 5 times a week for two weeks, did not reach statistical significance",slight anticancer activity
same,Survival of one animal,CT26 tumor; one animal,48 days
same,IC50,[4],> 200 µM
same,IC50,[5],> 200 µM
